Converted amounts (≈) assume the structure as drawn. Like-named read-outs stand apart in the source and are kept apart here.
Experiments:
ASD core symptoms = assay: Phase 2 clinical trial of oral bumetanide formulation; type: in vivo, children and adolescents; conditions: oral liquid formulation twice a day, paediatric population
Description: A phase 2 clinical trial that was run with various doses of the following oral formulation of bumetanide according to the invention: • Active ingredient: bumetanide at 0.5 mg/ml 1.0 mg/ml 2.0 mg/ml and placebo • Antimicrobial preservative: sodium methylparaben and sodium propylparaben • Buffering agents: NaH2PO4.2H2O and NaH2PO4 • Sweetening agents: Acesulfame potassium and sorbitol • Solvent: water The pH is 6.5. The liquid oral formulation is stored in an amber glass bottle with polypropylene/low density polyethylene child-resistant and tamper-evident cap. A 1 ml dosing pipette, consisting of a polystyrene plunger and a low-density polyethylene barrel and piston was used to administer directly the solution into the mouth. The posology was an oral administration of the liquid formulation twice a day for a paediatric population.

[1] = cited from earlier work

Compound: CCCCNc1cc(C(=O)O)cc(S(N)(=O)=O)c1Oc1ccccc1 [Bumetanide, 3-(Butylamino)-4-phenoxy-5-sulfamoylbenzoic acid]
- severity of ASD core symptoms (ASD core symptoms): can reduce the severity of ASD core symptoms
- solubility ([1]; in aqueous buffers): sparingly soluble
- solubility ([1]; in dimethyl formamide (DMF)): 33 mg/mL (≈ 90.6 mM)
- solubility ([1]; in ethanol): 14 mg/mL (≈ 38.4 mM)
